Structures are written as SMILES.

This note sets out measurements from publication PMC6921082, “Molecular Characterization of a Novel Cold-Active Hormone-Sensitive Lipase (HaHSL) from Halocynthiibacter Arcticus” (Biomolecules, 2019).

The target in the assay is T1, HaHSL (Falsihalocynthiibacter arcticus, UniProt A0A126UZB4).
T1 construct: gene RC74_09005; full-length ORF (789 bp); mass peak 31,740; monomer; catalytic Ser138, Glu216, His244
T1 sequence (A0A126UZB4 entry or part of it): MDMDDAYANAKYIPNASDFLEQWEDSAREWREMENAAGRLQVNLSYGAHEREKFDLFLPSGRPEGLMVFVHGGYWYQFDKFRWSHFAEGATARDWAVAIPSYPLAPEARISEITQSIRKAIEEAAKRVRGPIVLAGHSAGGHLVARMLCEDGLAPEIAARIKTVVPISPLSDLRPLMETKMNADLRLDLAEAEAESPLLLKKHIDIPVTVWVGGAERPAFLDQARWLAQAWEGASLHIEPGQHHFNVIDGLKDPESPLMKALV
The experiment in a line: p-nitrophenol release at […] nm, Lineweaver-Burk. The conditions noted are these: free enzyme; 20 mM Tris-HCl, 100 mM NaCl, pH 7.4 (spectroscopic analyses); standard assay pH 8.0, 25 °C. Type of assay: biochemical.
Consider `CCCCCC(=O)Oc1ccc([N+](=O)[O-])cc1` [p-nitrophenyl hexanoate], for which the Km – broadly, the concentration of substrate that gives half-maximal velocity – amounted to 2.32 ± 0.63 mM.

Consider `CCCC(=O)Oc1ccc([N+](=O)[O-])cc1` [p-nitrophenyl butyrate], for which the Km stood at 1.97 ± 0.53 mM.

On to `CC(=O)Oc1ccc([N+](=O)[O-])cc1` [p-nitrophenyl acetate], for which the Km is 0.21 mM.
